Laboratory results taken from PubChem BioAssay (NCI).
“And” between values parts separate entries of the source, which are not always exact repeats. Equal values may be shown once.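 Each compound was tested at five concentrations against cells in 96-well plates for 48 hours. The concentration for 50% growth inhibition is given as GI50. TGI marks complete inhibition of growth.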

Key:
Assay in all cases: growth of human tumour cells (NCI), 48 h
[1] = system: HCT-116 colon
[2] = system: CCRF-CEM leukemia
[3] = system: A549 NSCLC
[4] = system: COLO 205 colon
[5] = system: T-47D breast
[6] = system: UACC-62 melanoma
[7] = system: CAKI-1 renal
[8] = system: SR leukemia
[9] = system: K-562 leukemia
[10] = system: HOP-92 NSCLC

Row | Compound | GI50 [1] | TGI [1] | TGI [2] | GI50 [3] | TGI [3] | GI50 [4] | TGI [4] | GI50 [5] | TGI [5] | GI50 [6] | TGI [6] | GI50 [7] | TGI [7] | GI50 [8] | TGI [8] | TGI [9] | TGI [10] | GI50 [2] | GI50 [9] | GI50 [10]
1 | CC(=O)NC(CS)C(=O)O (stereo not drawn) | > 100 µM | > 100 µM and 52800 µM | > 100 µM | > 100 µM | > 100 µM and 69600 µM | > 100 µM | > 100 µM | > 100 µM | > 100 µM | > 100 µM | > 100 µM | > 100 µM | > 100 µM and 53400 µM | > 100 µM | > 100 µM | – | – | – | – | –
2 | COc1cccc(N2C(=O)/C(=C/c3ccc(N(CCC#N)CCC#N)cc3)N=C2c2cc([N+](=O)[O-])ccc2Cl)c1 | – | – | > 100 µM | – | – | – | 62.4 µM | – | – | – | > 100 µM | – | > 100 µM | – | > 100 µM | > 100 µM | – | – | – | –
3 | CC12CC/C(=N/NC(N)=O)C3C1CCCC32 | – | > 100 µM | > 100 µM | – | > 100 µM | – | > 100 µM | – | – | – | > 100 µM | – | > 100 µM | – | > 100 µM | > 100 µM | > 100 µM | – | – | –
4 | Cc1ccc(C(=O)C(c2nc3n(c2O)C(=N)N=N3)c2nc3n(c2O)C(=N)N=N3)cc1 (stereo not drawn) | – | – | > 100 µM | – | > 100 µM | – | > 100 µM | – | – | – | > 100 µM | – | > 100 µM | – | – | > 100 µM | > 100 µM | – | – | –
5 | CCC1(OC(=O)CNC)C(=O)OCc2c1cc1n(c2=O)Cc2cc3ccccc3nc2-1 (stereo not drawn) | – | 0.264 µM | 0.468 µM | – | 0.958 µM | – | 1.54 µM | – | – | – | 0.0186 µM | – | – | – | – | > 60.1 µM | 1.56 µM | – | – | –
6 | O=c1c2ccccc2nc2n1CCc1c-2[nH]c2cc3c(cc12)OCO3 | – | > 25 µM | > 25 µM | > 25 µM | > 25 µM | – | > 25 µM | – | > 25 µM | – | – | – | – | – | > 25 µM | > 25 µM | – | > 25 µM | – | –
7 | COC(=O)C(=O)C(C#N)c1cccc(Cl)c1 (stereo not drawn) | – | > 100 µM | > 100 µM | – | > 100 µM | – | > 100 µM | – | – | – | > 100 µM | – | > 100 µM | – | > 100 µM | > 100 µM | – | – | – | –
8 | O=C[C@]12CC=C3OC4OC5(CCCCC5)OC4[C@H]3[C@H]1C(=O)C=CC2=O (stereo partly drawn) | – | 38.4 µM | 9.3 µM | – | > 100 µM | – | – | – | – | – | 52.6 µM | – | 74.6 µM | – | 7.93 µM | – | – | – | – | –
9 | Cn1nc(-c2ccccc2)c2c(/C=C/c3ccc(Cl)cc3)onc2c1=O | – | 28.4 µM | > 100 µM | – | 35.4 µM | – | > 100 µM | – | – | – | > 100 µM | – | – | – | – | > 100 µM | 57.1 µM | – | – | –
10 | Cc1cc2nc3c(=O)[nH]c(=O)nc-3n(CC(O)C(O)C(O)CO)c2cc1N (stereo not drawn) | – | > 100 µM | > 100 µM | – | > 100 µM | – | > 100 µM | – | – | – | > 100 µM | – | – | – | – | > 100 µM | > 100 µM | – | – | –
11 | CC12CCCC(C#N)(C1)OC2=O (stereo not drawn) | – | > 100 µM | > 100 µM | – | > 100 µM | – | – | – | – | – | > 100 µM | – | > 100 µM | – | > 100 µM | > 100 µM | > 100 µM | – | – | –
12 | CN(C)CCCOc1ccc(/C=C2/CCC/C(=C/c3ccc(OCCCN(C)C)cc3)C2=O)cc1 | – | 2.76 µM | 3.84 µM | – | 6.28 µM | – | 3.2 µM | – | – | – | 3.74 µM | – | – | – | – | 1.24 µM | 9.72 µM | – | – | –
13 | CCC1=C[C@@H]2CN(C1)Cc1c([nH]c3ccccc13)[C@@](C(=O)OC)(c1cc3c(cc1OC)N(C)[C@H]1[C@@](O)(C(=O)OC)[C@H](OC(C)=O)[C@]4(CC)C=CCN5CC[C@]31[C@@H]54)C2 | < 0.01 µM | > 40.4 µM | 0.71 µM | < 0.019 µM | > 34.1 µM | < 0.01 µM | 0.0775 µM | – | – | < 0.01 µM | 18.6 µM | – | 2.52 µM | < 0.01 µM | 1.95 µM | 18.9 µM | 0.554 µM | < 0.01 µM | < 0.01 µM | < 0.0471 µM
14 | O=C1C(Cl)=C(Cl)C(=O)N1c1ccccc1Cl | – | > 100 µM | 19.3 µM | – | > 100 µM | – | > 100 µM | – | – | – | > 100 µM | – | > 60.9 µM | – | 69.7 µM | > 81 µM | > 79.4 µM | – | – | –
15 | N#CC(C(=O)/C(=N/NC(=O)c1ccccc1O)C(C#N)c1ccc(Br)cc1)c1ccc(Br)cc1 (stereo not drawn) | – | 26.6 µM | 76.4 µM | – | 39.9 µM | – | 30.1 µM | – | – | – | 28.2 µM | – | – | – | – | > 100 µM | 31.1 µM | – | – | –
16 | N#CCCN(C1=NN(C(=O)CC(=O)Nc2ccc(Cl)cc2)C(c2ccccc2)C1)c1ccc(Cl)cc1 (stereo not drawn) | – | > 100 µM | > 100 µM | – | > 100 µM | – | > 100 µM | – | – | – | > 100 µM | – | > 100 µM | – | > 100 µM | > 100 µM | > 100 µM | – | – | –
17 | CC[O-].CC[O-].COc1ccc(C(=O)[CH-]C(C)=O)cc1OC.COc1ccc(C(=O)[CH-]C(C)=O)cc1OC.[Ti+4] | > 100 µM | > 100 µM | > 100 µM | > 100 µM | > 100 µM | > 100 µM | > 100 µM | – | – | 56.5 µM | > 100 µM | 33 µM | 96.1 µM | 31.1 µM | 83.4 µM | > 100 µM | 65.9 µM | 27.8 µM | > 100 µM | 32.1 µM
18 | COc1ccc(C2CC(c3ccccc3)=NN2C(=O)c2cc(OC)c(OC)c(OC)c2)cc1O (stereo not drawn) | 0.313 µM | 3.05 µM | > 31.9 µM | 0.545 µM | > 100 µM | 2.96 µM | 10.4 µM | – | – | 0.269 µM | 15.8 µM | 0.925 µM | > 100 µM | 0.302 µM | 5.85 µM | 27.1 µM | 33.2 µM | 0.473 µM | 0.297 µM | 1.72 µM
19 | Cc1ccccc1C=NC12CC3CC(CC(C3)C1)C2 | – | > 100 µM | > 100 µM | – | > 100 µM | – | > 100 µM | – | – | – | > 100 µM | – | > 100 µM | – | – | > 100 µM | > 100 µM | – | – | –
20 | CCC[CH2][Sn]1([CH2]CCC)[O]C(=O)CN=C(C)c2ccccc2[O]1 | 1.55 µM | 2.92 µM | – | 3 µM | 9.62 µM | 0.569 µM | 1.9 µM | – | – | 0.922 µM | 2.21 µM | 0.534 µM | 2.1 µM | – | – | 4.74 µM | 2.18 µM | – | 0.289 µM | 0.978 µM
21 | O=C(CC(=O)N1N=C(n2ccc3ccccc32)CC1c1ccccc1)Nc1ccc(Cl)cc1 (stereo not drawn) | – | > 100 µM | > 100 µM | – | > 100 µM | – | > 100 µM | – | – | – | > 100 µM | – | – | – | – | > 100 µM | > 100 µM | – | – | –
